Values joined by “and” are separate entries in the source; they are usually repeats but may differ in a detail not shown here. Identical values can stand only once. Inconclusive results and toxic doses are left out. No stated cut-off is given here; in the data, active means T/C of 150% or more; inactive means T/C below 125%.
Tested on: L1210 leukemia ip in BDF1 mice, survival T/C
Assay: NCI In Vivo Anticancer Drug Screen. Data for tumor model L1210 Leukemia (intraperitoneal) in B6D2F1 (BDF1) mice
Details: endpoint: mean survival time, higher = longer survival
Procedure, shortened: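 Transplanted-tumor mice were given test agent; controls received vehicle only. Survival readings from the two groups were divided (treated over control).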

[1] = dose: 100.0 mg/kg/injection, schedule: Q04DX003 (ip), vehicle: saline with Tween-80
[2] = dose: 200.0 mg/kg/injection, schedule: Q04DX003 (ip), vehicle: saline with Tween-80
[3] = dose: 400.0 mg/kg/injection, schedule: Q04DX003 (ip), vehicle: saline with Tween-80
[4] = dose: 100.0 mg/kg/injection, schedule: Q01DX001 (ip), vehicle: Klucel (hydroxypropylcellulose) (HPC)
[5] = dose: 200.0 mg/kg/injection, schedule: Q01DX001 (ip), vehicle: Klucel (hydroxypropylcellulose) (HPC)
[6] = dose: 400.0 mg/kg/injection, schedule: Q01DX001 (ip), vehicle: Klucel (hydroxypropylcellulose) (HPC)
[7] = dose: 100.0 mg/kg/injection, schedule: Q01DX001 (ip), vehicle: carboxymethylcellulose (CMC)
[8] = dose: 200.0 mg/kg/injection, schedule: Q01DX001 (ip), vehicle: carboxymethylcellulose (CMC)
[9] = dose: 400.0 mg/kg/injection, schedule: Q01DX001 (ip), vehicle: carboxymethylcellulose (CMC)
[10] = dose: 100.0 mg/kg/injection, schedule: Q04DX003 (ip), vehicle: Klucel (hydroxypropylcellulose) (HPC)
[11] = dose: 200.0 mg/kg/injection, schedule: Q04DX003 (ip), vehicle: Klucel (hydroxypropylcellulose) (HPC)
[12] = dose: 400.0 mg/kg/injection, schedule: Q04DX003 (ip), vehicle: Klucel (hydroxypropylcellulose) (HPC)
[13] = dose: 100.0 mg/kg/injection, schedule: Q01DX009 (ip), vehicle: saline
[14] = dose: 200.0 mg/kg/injection, schedule: Q01DX009 (ip), vehicle: saline

Measured: T/C

COc1ccccc1-n1c(O)c(N=Nc2ccccc2)c(=O)n(-c2ccc(Br)cc2)c1=S
inactive: [1] 106 % of control | [2] 100 % of control | [3] 94 % of control

Cc1ccc(S(=O)(=O)OC2CCC(C(C)(C)C)C(Cl)C2)cc1 (configuration not stated)
inactive: [4] 103 % of control | [5] 87 % of control | [6] 94 % of control

CC(C)=NC(=O)NO.[Cl][Zn][Cl]
inactive: dose: 15.0 mg/kg/injection, schedule: Q01DX001 (ip), vehicle: carboxymethylcellulose (CMC) 95 % of control | dose: 30.0 mg/kg/injection, schedule: Q01DX001 (ip), vehicle: carboxymethylcellulose (CMC) 89 % of control | dose: 60.0 mg/kg/injection, schedule: Q01DX001 (ip), vehicle: carboxymethylcellulose (CMC) 100 % of control

COc1ccc(O)c(C2(O)OC(=O)c3c(OC)cccc32)c1 (configuration not stated)
inactive: [7] 103 % of control and 111 % of control | dose: 100.0 mg/kg/injection, schedule: Q01DX009 (ip), vehicle: carboxymethylcellulose (CMC) 100 % of control and 89 % of control | dose: 100.0 mg/kg/injection, schedule: Q04DX002 (ip), vehicle: carboxymethylcellulose (CMC) 102 % of control and 113 % of control | dose: 100.0 mg/kg/injection, schedule: Q04DX003 (ip), vehicle: carboxymethylcellulose (CMC) 95 % of control and 100 % of control | [8] 94 % of control and 106 % of control | dose: 200.0 mg/kg/injection, schedule: Q01DX009 (ip), vehicle: carboxymethylcellulose (CMC) 104 % of control and 89 % of control | dose: 200.0 mg/kg/injection, schedule: Q04DX002 (ip), vehicle: carboxymethylcellulose (CMC) 97 % of control | dose: 200.0 mg/kg/injection, schedule: Q04DX003 (ip), vehicle: carboxymethylcellulose (CMC) 94 % of control and 100 % of control | [9] 94 % of control and 103 % of control | dose: 400.0 mg/kg/injection, schedule: Q04DX002 (ip), vehicle: carboxymethylcellulose (CMC) 97 % of control and 98 % of control | dose: 400.0 mg/kg/injection, schedule: Q04DX003 (ip), vehicle: carboxymethylcellulose (CMC) 95 % of control and 90 % of control

CC(C(=O)O)(c1c[nH]c2ccccc12)c1c[nH]c2ccccc12
inactive: dose: 50.0 mg/kg/injection, schedule: Q01DX001 (ip), vehicle: saline 106 % of control | dose: 100.0 mg/kg/injection, schedule: Q01DX001 (ip), vehicle: saline 103 % of control | dose: 200.0 mg/kg/injection, schedule: Q01DX001 (ip), vehicle: saline 92 % of control | dose: 400.0 mg/kg/injection, schedule: Q01DX001 (ip), vehicle: saline 86 % of control

C=CCc1cc(CNCC(C)O)c(O)c(OC)c1 (configuration not stated)
inactive: dose: 50.0 mg/kg/injection, schedule: Q04DX003 (ip), vehicle: Klucel (hydroxypropylcellulose) (HPC) 95 % of control | [10] 93 % of control

O=[N+]([O-])c1ccc(C2OC2c2ccccc2)cc1 (configuration not stated)
inactive: dose: 100.0 mg/kg/injection, schedule: Q01DX009 (ip), vehicle: Klucel (hydroxypropylcellulose) (HPC) 101 % of control | [10] 100 % of control | dose: 200.0 mg/kg/injection, schedule: Q01DX009 (ip), vehicle: Klucel (hydroxypropylcellulose) (HPC) 95 % of control | [11] 95 % of control | dose: 400.0 mg/kg/injection, schedule: Q01DX009 (ip), vehicle: Klucel (hydroxypropylcellulose) (HPC) 95 % of control | [12] 97 % of control

Cc1ccc(C(=O)CCCCCC(=O)c2ccc(C)cc2O)c(O)c1
inactive: [4] 98 % of control | [5] 98 % of control | [6] 95 % of control

O=CC(O)C(O)C(O)C(O)CO (configuration not stated) (tested in a mixture with another compound)
inactive: dose: 6.25 mg/kg/injection, schedule: Q04DX002 (ip), vehicle: saline 95 % of control | dose: 12.5 mg/kg/injection, schedule: Q04DX002 (ip), vehicle: saline 100 % of control | dose: 25.0 mg/kg/injection, schedule: Q04DX002 (ip), vehicle: saline 103 % of control and 91 % of control | dose: 75.0 mg/kg/injection, schedule: Q04DX002 (ip), vehicle: saline 95 % of control | dose: 100.0 mg/kg/injection, schedule: Q04DX002 (ip), vehicle: saline 103 % of control | dose: 150.0 mg/kg/injection, schedule: Q04DX002 (ip), vehicle: saline 95 % of control | dose: 200.0 mg/kg/injection, schedule: Q04DX002 (ip), vehicle: saline 99 % of control | dose: 300.0 mg/kg/injection, schedule: Q04DX002 (ip), vehicle: saline 106 % of control | dose: 400.0 mg/kg/injection, schedule: Q04DX002 (ip), vehicle: saline 102 % of control

C/C(=N/O)c1ccc(C)s1
inactive: [7] 94 % of control | [8] 100 % of control | [9] 100 % of control

CC1CN1CO (configuration not stated)
inactive: dose: 75.0 mg/kg/injection, schedule: Q01DX001 (ip), vehicle: saline 109 % of control

O=C1c2cccc3c2C2(C45c6c7cccc6C(=O)c6cccc(c64)C(=O)c4cccc(c45)C7=O)c4c1cccc4C(=O)c1cccc(c12)C3=O
inactive: [13] 103 % of control | [1] 94 % of control | [14] 95 % of control | [2] 107 % of control | dose: 400.0 mg/kg/injection, schedule: Q01DX009 (ip), vehicle: saline 95 % of control | [3] 94 % of control

CC(C)CC(NS(=O)(=O)Cc1ccccc1)C(=O)NN (configuration not stated)
inactive: dose: 100.0 mg/kg/injection, schedule: Q01DX001 (ip), vehicle: other 98 % of control | dose: 200.0 mg/kg/injection, schedule: Q01DX001 (ip), vehicle: other 96 % of control | dose: 400.0 mg/kg/injection, schedule: Q01DX001 (ip), vehicle: other 110 % of control

Cc1ncc(C(C)(O)c2ccccc2)n1C (configuration not stated)
inactive: dose: 100.0 mg/kg/injection, schedule: Q01DX009 (ip), vehicle: saline with Tween-80 105 % of control | dose: 200.0 mg/kg/injection, schedule: Q01DX009 (ip), vehicle: saline with Tween-80 94 % of control

Cc1nonc1-c1ccc2c(c1)OCO2
inactive: [10] 103 % of control | [11] 97 % of control | [12] 101 % of control

CN(C)c1ccc2c(c1)C(=NO)c1cc(N(C)C)ccc1-2
inactive: [10] 104 % of control | [11] 96 % of control | [12] 91 % of control

CSc1ccccc1NC(=O)NCCCl
inactive: [13] 100 % of control | [14] 98 % of control
